{
  "source": "patent US6232347A",
  "about": "“Treatment of osteoarthritis” (Knoll Pharmaceutical Company, priority 2000, dated 2001)",
  "test_system": "reuptake of all three monoamines",
  "assay": "monoamine reuptake inhibition profile (summary in words of Table 1)",
  "type": "biochemical, rat",
  "details": "with reference to Table 1, sibutramine through its pharmacologically active metabolites",
  "data": [
    {"molecule": "CC(C)CC(N(C)C)C1(c2ccc(Cl)cc2)CCC1", "note": "(stereo not shown) [Sibutramine, N,N-dimethyl-1-[1-(4-chlorophenyl)cyclobutyl]-3-methylbutylamine]", "values": [
      {"measurement": "inhibition of monoamine reuptake / selectivity profile", "result": "inhibits the reuptake of all three monoamines"}
    ]}
  ]
}
